# Entries after “also recorded” stand apart in the source; their conditions may differ. Like-named read-outs stand apart in the source and are kept apart here.
# Tests used:
# [1] = test system: synaptic DA ([11C]-raclopride binding, corpus striatum); assay: Primate PET: [11C]-raclopride DV ratio after cocaine challenge; format: in vivo, baboons (Papio anubis); conditions: Group 2: cocaine hydrochloride 0.5, 1.0 or 2.0 mg/kg, 5 or 30 minutes prior to second [11C]-raclopride injection
# Protocol: Arterial blood samples were obtained throughout the study and selected plasma samples were analyzed for the presence of unchanged radio tracer carbon-11. Animals were not removed from the gantry between isotope injections. Regions of interest (ROI's) were drawn directly on the PET images. Briefly, the corpus striatum was outlined, bilaterally, on every transaxial slice upon which it appeared. The cerebellar ROI was drawn across the midline at the level of the cerebellar vermis. ROI's from the first study were then copied directly onto the corresponding slice from the second. By examining placement of the ROI's on the second scan changes could be made, if necessary, in ROI position only. This multi planar method of analysis reduced differences that may arise due to movement of the animal within the gantry during the scanning interval.
# A graphical method for determining the distribution volume (DV) was developed previously for the kinetic analysis of the [^11C]-raclopride data. The DV ratio was the most reproducible measure of raclopride uptake. The ratio is the DV from a receptor-rich region (corpus striatum) to the DV of a non-receptor region (cerebellum). The free receptor concentration was directly proportional to the DV ratio of 1. […]
# NAc DA = assay: Microdialysis: cocaine/heroin (speedball) induced increases in NAc DA; format: in vivo, rats; conditions: cocaine 20 mg/kg i.p. or heroin 0.5 mg/kg i.p. alone
# Protocol: In vivo microdialysis studies were performed using adult male Sprague-Dawley rats (Taconic Farms) as detailed previously (Morgan and Dewey, 1998). Cocaine, a dopamine reuptake inhibitor, (n=6-8) was administered (i.p.) at a dose of 20 mg/kg while heroin, an indirect dopamine releaser, (n=6-8) was administered (i.p.) at a dose of 0.5 mg/kg. In studies designed to investigate the synergistic effects of a cocaine/heroin combination (n=6-8), both drugs were administered at the identical dose used in the single drug studies. Alone cocaine produced a marked elevation in extracellular DA of approximately 380% above baseline values, 60 minutes following administration. DA returned to baseline within 120 minutes. In contrast, heroin increased NAc DA by only 70%, 60 minutes following administration, returning to baseline within 140 minutes. However, when combined, the two drugs produced an increase in NAc DA of approximately 1000%, 180 minutes following administration that had not returned to baseline values by 200 minutes after reaching peak values (FIG. 9).
# freely moving rats = assay: Cocaine-induced stereotypy after a sensitizing regimen of cocaine; format: in vivo
# Protocol: The phenomenon of sensitization is observed with virtually all drugs of addiction. Sensitization is believed to play a role in the etiology of addiction.
# Animals received 15 mg/kg i.p. of cocaine and stereotypy was determined in standard locomotor cages. For 6 consecutive days, animals received 15 mg/kg i.p. of cocaine once a day in their home cages. Eight days later, animals were rechallenged with 15 mg/kg i.p. of cocaine and stereotypy was determined. A five point rating scale was used to assess stereotypy and the rater was blind to the treatment received by each animal.
# male Sprague-Dawley rats = format: in vivo
# Text: In all rodent studies, male Sprague-Dawley rats were used (200-225 g, Taconic farms, Germantown, N.Y.). Animals were allowed to acclimate to the animal housing facility for at least 5 days prior to beginning the experiments. […] The conditioning procedure for the acquisition phase consisted of 12 sessions carried out consecutively over 12 days.
# The animals in each group were randomly assigned to a 2×2 factorial design with one factor being the pairing chamber and the other factor being the order of conditioning. The animals that received either saline or cocaine were injected and confined to the appropriate compartment for 30 minutes.
# […] The amount of time spent in each chamber was recorded using an automated infrared beam electronically coupled to a timer.
# In this example the procedure outlined in Section 2 of Materials and Methods was followed.
# [2] = test system: extracellular DA levels in the NACC; assay: Microdialysis: cocaine-induced increases in extracellular DA, earlier studies
# serotonin (5-HT) = assay: Microdialysis Example 15: extracellular serotonin after nicotine; format: in vivo
# Protocol: (§1) Briefly, two days prior to the microdialysis experiments, siliconized guide cannulae were implanted targeting the NAcc (A=+1.5 mm, L=−1.0 mm, V=−5.6 mm). […] Dialysate samples were assayed for monoamine content by microbore high-pressure liquid chromatography (HPLC) coupled with electrochemical detection. […] Peak effects were analyzed with a one-way ANOVA, and post-hoc Bonferroni t-test of topiramate pretreated groups compared to saline pretreated controls provided ANOVA significance at a critical value of 0.05.
# norepinephrine (NE) = assay: Microdialysis Example 15: extracellular norepinephrine after nicotine; format: in vivo
# Protocol: as §1
# [3] = test system: mesolimbic extracellular dopamine (DA), NAcc; assay: Microdialysis Example 15: extracellular dopamine after nicotine; format: in vivo
# Protocol: as §1
# [4] = test system: extracellular dopamine in the nucleus accumbens; assay: Microdialysis: Topiramate on nicotine-induced increases in nucleus accumbens dopamine (Example 14); format: in vivo, rats; conditions: Rattus norvegicus, ip, 60 mins pretreatment
# Protocol: These studies were performed using the identical experimental technique we have successfully used in more than 5000 microdialysis studies in rats. Adult male Sprague-Dawley rats (200-300 g, Taconic Farms) were anesthetized with ketamine HCl/xylazine (100 mg/kg), and siliconized guide cannulae are stereotactically implanted in the NACC (1.5 mm anterior to bregma, 1 mm lateral to bregma, and 5.6 mm ventral from the cortical surface, Paxinos and Watson, 2nd edition, 1986) two days prior to the microdialysis experiment.
# On the day of the microdialysis study, rats are placed in a bowl at least 2 hrs prior to fraction collection. […]
# Ten minute samples are collected within the injection loop (50 μl), injected online and analyzed until three sequential injections differ by less than 10 percent. […]
# As stated previously, the first three data points that differ by less than 10% are used as the basal levels, and subsequent measurements made following a challenge drug are converted to a percentage of these values. All subsequent analyses are determined using the ‘percentage of basal’ values.
# Locomotor activity was monitored throughout the entire period of study using an Optical Animal Activity Monitor (Bioanalytical Systems, West Lafayette, Ind.), which uses an optical sensor and records activity on both a chart recorder and via computer. […]
# [5] = test system: extracellular dopamine in the nucleus accumbens; assay: Microdialysis: Topiramate on cocaine-induced increases in nucleus accumbens dopamine; format: in vivo, rats; conditions: Topiramate 40 mg/kg i.p. 60 minutes prior to cocaine challenge
# Protocol: In this example, we examined the effects of Topiramate sixty minutes prior to a cocaine challenge. The Topiramate was administered as an intraperitoneal injection, of 40 mg/kg, 60 minutes prior to a cocaine challenge.
# Sprague-Dawley rats = assay: Gross locomotor activity (Optical Animal Activity Monitor); format: in vivo; conditions: for nicotine-induced increases in gross locomotor activity: topiramate 25 and 50 mg/kg
# Text: Locomotor activity was monitored throughout the entire period of study using an Optical Animal Activity Monitor (Bioanalytical Systems, West Lafayette, Ind.), which uses an optical sensor and records activity on both a chart recorder and via computer.
# Locomotor data was collected with the Optical Animal Activity Monitor (OAAM, BAS, West Lafayette, Ind.). This system is attached to the microdialysis “Raturn®” machines and measures locomotor activity through an optical sensor attached directly to the animal. Output from the Raturn® gives a direct index of locomotor activity.
# [6] = acquisition, Saline/Cocaine pairing, cocaine 20 mg/kg (Table IV)
# [7] = acquisition, Saline/Cocaine pairing, cocaine 20 mg/kg (Table V)
# [8] = acquisition, Saline/Cocaine pairing, cocaine 20 mg/kg (Table VI)
# [9] = expression, Saline/Cocaine pairings, saline on test day (Table IX)
# [10] = expression, Saline/Cocaine pairings, saline on test day (Table VII)
# [11] = expression, Saline/Cocaine pairings, saline on test day (Table VIII)
# [12] = expression, Saline/Cocaine pairings, saline on test day (Table X)
compound,measurement,setting,value
COC(=O)[C@H]1[C@@H](OC(=O)c2ccccc2)C[C@@H]2CC[C@H]1N2C [Cocaine],reduction in the mean DV ratio,[1],greater than 30%
same,time for DA to return to baseline,NAc DA,≤ 120 min
same,Stereotypies on Day 15,"freely moving rats; cocaine 15 mg/kg i.p. rechallenge after sensitizing regimen, 1 ml/kg i.p. 0.9% NaCl before",4.1 ± 0.5
same,Stereotypy score on Day 1,"freely moving rats; cocaine 15 mg/kg i.p., group later given 0.9% NaCl, five point rating scale",2.5 ± 0.4
same,"Time spent in chambers, Unpaired","male Sprague-Dawley rats; acquisition, Saline/Cocaine pairing, cocaine 20 mg/kg (Table III)",3.9 ± 0.4 min
same,"Time spent in chambers, Paired","male Sprague-Dawley rats; acquisition, Saline/Cocaine pairing, cocaine 20 mg/kg (Table III, 75 mg/kg GVG experiment)",11.1 ± 0.3^4 min
same,"Time spent in chambers, Paired",male Sprague-Dawley rats; [6],11.8 ± 0.5^4 mins
same,"Time spent in chambers, Unpaired",male Sprague-Dawley rats; [6],3.2 ± 0.5 min
same,"Time spent in chambers, Paired",male Sprague-Dawley rats; [7],11.6 ± 0.5^4 min
same,"Time spent in chambers, Unpaired",male Sprague-Dawley rats; [7],3.4 ± 0.4^5 min
same,"Time spent in chambers, Paired",male Sprague-Dawley rats; [8],11.2 ± 0.6^4 mins
same,"Time spent in chambers, Unpaired",male Sprague-Dawley rats; [8],.8 ± 0.5^5 mins
same,"Time spent in chambers, Paired",male Sprague-Dawley rats; cocaine 5.0 mg/kg i.p.,8.2 ± 0.4 min
same,"Time spent in chambers, Unpaired",male Sprague-Dawley rats; cocaine 5.0 mg/kg i.p.,6.8 ± 0.5 min
same,"Time spent in chambers, Paired",male Sprague-Dawley rats; cocaine 10.0 mg/kg i.p.,9.6 ± 0.5^2 mins
same,"Time spent in chambers, Unpaired",male Sprague-Dawley rats; cocaine 10.0 mg/kg i.p.,5.4 ± 0.3 min
same,"Time spent in chambers, Paired",male Sprague-Dawley rats; cocaine 20.0 mg/kg i.p.,11.8 ± 0.4^3 mins
same,"Time spent in chambers, Unpaired",male Sprague-Dawley rats; cocaine 20.0 mg/kg i.p.,3.2 ± 0.4^4 mins
same,"Time spent in chambers, Paired",male Sprague-Dawley rats; [9],11.1 ± 0.5^3 min
same,"Time spent in chambers, Unpaired",male Sprague-Dawley rats; [9],3.9 ± 0.4^4 min
same,"Time spent in chambers, Paired",male Sprague-Dawley rats; [10],11.8 ± 0.5^3 min
same,"Time spent in chambers, Unpaired",male Sprague-Dawley rats; [10],3.2 ± 0.5 min
same,"Time spent in chambers, Paired",male Sprague-Dawley rats; [11],12.2 ± 0.6^3 min
same,"Time spent in chambers, Unpaired",male Sprague-Dawley rats; [11],2.8 ± 0.5 min
same,"Time spent in chambers, Paired",male Sprague-Dawley rats; [12],12.5 ± 0.8^3 min
same,"Time spent in chambers, Unpaired",male Sprague-Dawley rats; [12],2.5 ± 0.6^4 min
same,increase of NACC DA levels (rank order),[2],450%
CC1(C)O[C@@H]2[C@@H](CO[C@@]3(COS(N)(=O)=O)OC(C)(C)O[C@@H]23)O1 [Topiramate],inhibition of nicotine-induced increases in 5-HT activity,serotonin (5-HT); topiramate 25 or 50 mg/kg,not
same,increase in basal 5-HT activity,"serotonin (5-HT); topiramate alone, non-significant",20%
same,inhibition at 25 mg/kg,"norepinephrine (NE); topiramate 25 mg/kg, read-out: inhibition of nicotine-induced increases in NE activity",53%
same,inhibition at 50 mg/kg,"norepinephrine (NE); topiramate 50 mg/kg, read-out: inhibition of nicotine-induced increases in NE activity",60%
same,extracellular basal NE concentrations,norepinephrine (NE); topiramate alone,did not produce any significant changes
same,reduction of the NAcc DA response to acute nicotine,[3]; topiramate 25 mg/kg,67%
same,reduction of the NAcc DA response to acute nicotine,[3]; topiramate 50 mg/kg,83%
same,neurochemical sensitization (nicotine-induced NAcc DA release),"[3]; topiramate 75 mg/kg, animals pretreated with nicotine for 14 days",dramatically reduced
same,extracellular basal DA concentrations,[3]; topiramate alone,did not produce any significant changes
same,inhibition at 25 mg/kg,[4]; topiramate 25 mg/kg ip,~50%
same,inhibition at 50 mg/kg,[4]; topiramate 50 mg/kg ip,~70%
same,attenuation of cocaine-induced increases in extracellular dopamine,[5],approximately 15%
same,"gross locomotor activity, topiramate alone",Sprague-Dawley rats; 25 and 50 mg/kg,did not alter gross locomotor activity; also recorded: did not attenuate gross locomotor activity
same,nicotine-induced increases in gross locomotor activity,Sprague-Dawley rats,significantly attenuate
same,nicotine-induced increases in gross locomotor activity,Sprague-Dawley rats; listed as topiramate,markedly attenuated
